This note sets out measurements from publication PMC6010013, “Synthesis, physiochemical property and antimicrobial activity of novel quaternary ammonium salts” (Journal of Enzyme Inhibition and Medicinal Chemistry, 2017).

Where two headings read alike, the source gives them in different places.

One series relates to β-H-tococcus. Nature of the series: MBC, agar plating of dilutions without growth. In kind it is cell-based. The following applies: 99.9% bactericidal; for MBC: read-out: Minimal bactericidal concentration (MBC). The source says:
(§1) In this paper, antimicrobial activities of 24 QASs were detected by quantitative tests. […] Benzalkonium chloride (BZK) and chlorhexidine acetate (CA) was selected as positive controls. Representative compound POT-C12QAS (2) which synthesised and evaluated in previous work was also taken as a reference compound in MIC, MBC and cytotoxicity tests. […]
(§2) agriculture were used as target pathogens in this study, including three strains of Gram-positive bacteria (S. Aureus, α-H-tococcus, β-H-tococcus), three strains of Gram-negative bacteria (E. coli, P. aeruginosa, Proteus vulgaris) and four strains of fungi (Canidia albicans, Cytospora mandshurica, Physalospora piricola, Aspergillus niger). The antimicrobial tests were assayed, according to standard CLSI methods for antimicrobial dilution susceptibility tests to measure the minimum inhibitory concentration (MIC) and minimum bactericidal concentration (MBC)2.
A broth tube dilution method was followed to determine the MIC values for all the screened compounds against the micro-organisms, and for comparison benzalkonium chloride (BZK) and chlorhexidine acetate (CA) was used as a reference. For sample preparation, each of the test compounds and reference were dissolved in DMSO or sterile water at a concentration of 1600 μg/mL, and further dilutions of the compounds and reference in culture medium MHB (Muller-Hinton Broth) were prepared at the required quantities of 400, 200, 100 etc., down to 0.39 μg/mL. Bacterial strains and fungal strains were maintained on MHA (Muller-Hinton Agar) medium at 37℃ or 28 ℃ for 12 h or 72h, respectively. The microbial inocula were prepared by suspension in 10 mL of culture medium for colonies from culture on MHA. The cell density of each inoculum was adjusted in culture medium of a 0.5 McFarland standard (1-2×10^8 CFU/mL). The final amount applied was 10^5 CFU/mL for bacteria and fungi. The microbial inocula were added to the twofold diluted samples. One growth control tube was prepared […] the addition of the compound and one blank tube was prepared without the addition of the microorganism. MIC values were read after incubation at 37℃ or 28 ℃ for bacterial and fungal strains, respectively. […]
(§3) was placed on agar plates in triplicate, and incubated at 37℃ or 28 ℃ for 12 h or 72h. The number of colonies on each plate was read, and the MBC was determined as the lowest concentration that achieved a 99.9% bactericidal in the agar plate.

For another series, the system named is Canidia albicans. The series is described as follows: MBC, agar plating of dilutions without growth. In kind it is cell-based. To be noted: 99.9% bactericidal; for MBC: read-out: Minimal bactericidal concentration (MBC).
Text: as §1, §2
(§4) A broth tube dilution method was followed to determine the MIC values for all the screened compounds against the micro-organisms, and for comparison benzalkonium chloride (BZK) and chlorhexidine acetate (CA) was used as a reference. For sample preparation, each of the test compounds and reference were dissolved in DMSO or sterile water at a concentration of 1600 μg/mL, and further dilutions of the compounds and reference in culture medium MHB (Muller-Hinton Broth) were prepared at the required quantities of 400, 200, 100 etc., down to 0.39 μg/mL. Bacterial strains and fungal strains were maintained on MHA (Muller-Hinton Agar) medium at 37℃ or 28 ℃ for 12 h or 72h, respectively. The microbial inocula were prepared by suspension in 10 mL of culture medium for colonies from culture on MHA. The cell density of each inoculum was adjusted in culture medium of a 0.5 McFarland standard (1-2×10^8 CFU/mL). The final amount applied was 10^5 CFU/mL for bacteria and fungi. The microbial inocula were added to the twofold diluted samples. One growth control tube was prepared […] the addition of the compound and one blank tube was prepared without the addition of the microorganism. MIC values were read after incubation at 37℃ or 28 ℃ for bacterial and fungal strains, respectively. After 12 h or 72h, the last tube with no growth of micro-organisms was recorded to represent the MIC value expressed in μg/ml. All experiments were carried out three times. […]
as §3

Another series deals with Cytospora mandshurica. The series is described as follows: MBC, agar plating of dilutions without growth. In kind it is cell-based. To be noted: 99.9% bactericidal; for MBC: Cytospora, read-out: Minimal bactericidal concentration (MBC).
Text: as §1, §2, §4, §3

For the next series, the system named is E. coli. Nature of the series: MBC, agar plating of dilutions without growth. In kind it is cell-based. The following applies: 99.9% bactericidal; for MBC: Escherichia coli, read-out: Minimal bactericidal concentration (MBC).
Text: as §1, §2, §4, §3

Another series deals with Physalospora piricola. The series is described as follows: MBC, agar plating of dilutions without growth. In kind it is cell-based. The following applies: 99.9% bactericidal; for MBC: read-out: Minimal bactericidal concentration (MBC).
Text: as §1, §2, §4, §3

For the next series, the system named is S. aureus. The series is described as follows: MBC, agar plating of dilutions without growth. In kind it is cell-based. The following applies: 99.9% bactericidal; for MBC: Staphylococcus aureus, read-out: Minimal bactericidal concentration (MBC).
Text: as §1, §2, §4, §3

In a further series the test system is α-H-tococcus. The series is described as follows: MBC, agar plating of dilutions without growth. In kind it is cell-based. The following applies: 99.9% bactericidal; for MBC: read-out: Minimal bactericidal concentration (MBC).
Text: as §1, §2, §4, §3

In another series the test system is P. aeruginosa. Nature of the series: MBC, agar plating of dilutions without growth. In kind it is cell-based. The following applies: 99.9% bactericidal; for MBC: Pseudomonas aeruginosa, read-out: Minimal bactericidal concentration (MBC).
Text: as §1, §2, §4, §3

For another series, the system named is Aspergillus niger. The series is described as follows: MBC, agar plating of dilutions without growth. To be noted: 99.9% bactericidal; for MBC: read-out: Minimal bactericidal concentration (MBC). In kind it is cell-based.
Text: as §1, §2, §4, §3

The test system of the next series is Proteus vulgaris. Nature of the series: MBC, agar plating of dilutions without growth. In kind it is cell-based. To be noted: 99.9% bactericidal; for MBC: read-out: Minimal bactericidal concentration (MBC).
Text: as §1, §2, §4, §3

Series [1] relates to human immortalised epidermal (HaCat) cell line. Nature of the series: Cytotoxicity, MTT assay. In kind it is cell-based. (In general: Tetrazolium dyes change colour on reduction, which living cells bring about.)
Series [2] has as its system human normal liver (LO2) cell line. The series is described as follows: Cytotoxicity, MTT assay. In kind it is cell-based.

With `C[N+](CCO)(CCO)CCCCCCCCCCSc1nnc(-c2ccc(C(F)(F)F)cc2)o1.[Br-]` [Compound 6c], the melting point (commonly the temperature of the solid-liquid transition) was 102 to 103 °C. In the series on β-H-tococcus, the MBC was 6.25 µg/mL. In addition, in the series with Canidia albicans, the MBC turned out to be 25 µg/mL. Also, the MBC with Cytospora mandshurica was found to be 12.5 µg/mL. For the same compound, the MBC in the series with E. coli stood at 25 µg/mL. Further, the MBC in the series with Physalospora piricola came to 3.12 µg/mL. The MBC with S. aureus worked out at 25 µg/mL. Further, in the series with α-H-tococcus, the MBC turned out to be 12.5 µg/mL. Further, in the series with P. aeruginosa, the MBC was determined as 50 µg/mL. Also, in the series on Aspergillus niger, the MBC turned out to be 12.5 µg/mL. Besides, in the series on Proteus vulgaris, the MBC was determined as 25 µg/mL.

For `C[N+](CCO)(CCO)CCCCCCCCCCSc1nnc(-c2ccc(F)cc2)o1` [Compound 5c], the MBC in the series with β-H-tococcus stood at 12.5 µg/mL; in the series on Canidia albicans, 25 µg/mL; in the series with Cytospora mandshurica, 12.5 µg/mL; with E. coli it was 50 µg/mL; in the series with Physalospora piricola, 6.25 µg/mL; with S. aureus, 25 µg/mL. In addition, the MBC with α-H-tococcus was determined as 12.5 µg/mL; in the series on P. aeruginosa, 50 µg/mL; in the series on Aspergillus niger, 25 µg/mL; in the series with Proteus vulgaris it was 50 µg/mL.

Take `C[N+](CCO)(CCO)CCCCCCCCCCCCSc1nc2ccccc2s1` [Compound 13d]: the MBC in the series on β-H-tococcus was roughly 3.12 µg/mL; in the series with Canidia albicans, 6.25 µg/mL; in the series on Cytospora mandshurica it was roughly 6.25 µg/mL; in the series on E. coli, 25 µg/mL; in the series with Physalospora piricola it was 3.12 µg/mL; with S. aureus, 6.25 µg/mL. Also, the MBC in the series with α-H-tococcus is 12.5 µg/mL; in the series on P. aeruginosa, 25 µg/mL; in the series on Aspergillus niger, 6.25 µg/mL; in the series with Proteus vulgaris, 25 µg/mL.

As for `C[N+](CCO)(CCO)CCCCCCCCCCCCSc1nnc(-c2ccccc2)o1` [Compound 2, reference compound], the MBC with β-H-tococcus was found to be 6.25 µg/mL; in the series with Canidia albicans it was 12.5 µg/mL; in the series with Cytospora mandshurica, 6.25 µg/mL; in the series on E. coli, 50 µg/mL; in the series on Physalospora piricola, 3.12 µg/mL; with S. aureus it was 12.5 µg/mL. Moreover, the MBC came out at 6.25 µg/mL in the series on α-H-tococcus, 25 µg/mL in the series on P. aeruginosa, 3.12 µg/mL with Aspergillus niger and 50 µg/mL in the series with Proteus vulgaris.

`C[N+](CCO)(CCO)CCCCCCCCCCCCSc1nnc(-c2ccc(C(F)(F)F)cc2)o1.[Br-]` [Compound 6d] gave a melting point of 88 to 90 °C. Moreover, the MBC in the series on β-H-tococcus came out at 3.12 µg/mL. Also, in the series on Canidia albicans, the MBC was 12.5 µg/mL. In the series on Cytospora mandshurica, the MBC turned out to be 6.25 µg/mL. Moreover, the MBC with E. coli came out at 25 µg/mL. The MBC with Physalospora piricola came out at 1.56 µg/mL. In addition, in the series with S. aureus, the MBC stood at 12.5 µg/mL. Moreover, in the series on α-H-tococcus, the MBC worked out at 6.25 µg/mL. In the series with P. aeruginosa, the MBC stood at 50 µg/mL. The MBC with Aspergillus niger turned out to be 6.25 µg/mL. The MBC in the series on Proteus vulgaris worked out at 25 µg/mL.

Take `C[N+](CCO)(CCO)CCCCCCSc1nnc(-c2ccc(F)cc2)o1` [Compound 5a]: the MBC stood at 25 µg/mL in the series on β-H-tococcus; 50 µg/mL with Canidia albicans; 50 µg/mL with Cytospora mandshurica; 100 µg/mL in the series on E. coli; 12.5 µg/mL with Physalospora piricola; 100 µg/mL with S. aureus. The MBC in the series with α-H-tococcus amounted to 50 µg/mL; with P. aeruginosa it was 100 µg/mL; with Aspergillus niger it was 50 µg/mL; in the series on Proteus vulgaris it was 100 µg/mL.

Take `[H]/N=C(\N/C(=N/[H])NCCCCCCNC(=N)NC(=N)Nc1ccc(Cl)cc1)Nc1ccc(Cl)cc1` [CA, chlorhexidine acetate, reference compound]: the MBC with β-H-tococcus was 3.12 µg/mL; in the series with Canidia albicans it was 12.5 µg/mL; with Cytospora mandshurica, 6.25 µg/mL; in the series with E. coli, 12.5 µg/mL; with Physalospora piricola it was 3.12 µg/mL; with S. aureus it was 6.25 µg/mL. The MBC came out at 6.25 µg/mL with α-H-tococcus, 25 µg/mL in the series on P. aeruginosa, 6.25 µg/mL in the series with Aspergillus niger and 12.5 µg/mL in the series on Proteus vulgaris.

Regarding `C[N+](CCO)(CCO)CCCCCCCCCCCCSc1nnc(-c2ccc(F)cc2)o1` [Compound 5d], the MBC in the series with β-H-tococcus worked out at 6.25 µg/mL; with Canidia albicans, 12.5 µg/mL; with Cytospora mandshurica it was 12.5 µg/mL; in the series with E. coli, 25 µg/mL; with Physalospora piricola, 3.12 µg/mL; with S. aureus, 12.5 µg/mL. Also, the MBC was found to be 12.5 µg/mL in the series on α-H-tococcus, 50 µg/mL in the series with P. aeruginosa, 25 µg/mL with Aspergillus niger and 25 µg/mL with Proteus vulgaris.

As to `C[N+](CCO)(CCO)CCCCCCSc1nnc(-c2ccc(C(F)(F)F)cc2)o1` [Compound 6a], the MBC in the series on β-H-tococcus worked out at 25 µg/mL; in the series on Canidia albicans, 50 µg/mL; in the series on Cytospora mandshurica, 25 µg/mL; with E. coli it was 50 µg/mL; in the series on Physalospora piricola, 12.5 µg/mL; with S. aureus, 50 µg/mL. Also, the MBC with α-H-tococcus worked out at 50 µg/mL; with P. aeruginosa, 100 µg/mL; in the series on Aspergillus niger, 25 µg/mL; in the series with Proteus vulgaris, 100 µg/mL.

With `C[N+](CCO)(CCO)CCCCCCCCSc1nnc(-c2ccc(C(F)(F)F)cc2)o1` [Compound 6b], the MBC came out at 12.5 µg/mL with β-H-tococcus; 25 µg/mL with Canidia albicans; 12.5 µg/mL in the series on Cytospora mandshurica; 50 µg/mL with E. coli; 6.25 µg/mL in the series on Physalospora piricola; 25 µg/mL in the series on S. aureus. The MBC with α-H-tococcus turned out to be 25 µg/mL; with P. aeruginosa, 50 µg/mL; in the series on Aspergillus niger, 25 µg/mL; in the series with Proteus vulgaris, 50 µg/mL. In addition, the “Cytotoxicity IC50” value is 32.57 ± 2.69 µg/mL in series [1] (HaCat cells, MTT, 24 h) and 38.72 ± 2.92 µg/mL in series [2] (LO2 cells, MTT, 24 h).

Take “Benzalkonium chloride [BZK, reference compound]”: the “Minimal bactericidal concentration (MBC)” value in the series with β-H-tococcus turned out to be 1.56 µg/mL; with Canidia albicans, 25 µg/mL; in the series on Cytospora mandshurica it was 6.25 µg/mL; in the series with E. coli, 25 µg/mL; with Physalospora piricola, 3.125 µg/mL; in the series with S. aureus, 3.125 µg/mL. Moreover, the “Minimal bactericidal concentration (MBC)” value is 3.125 µg/mL in the series with α-H-tococcus, 25 µg/mL with P. aeruginosa, 6.25 µg/mL with Aspergillus niger and 25 µg/mL with Proteus vulgaris. The “Cytotoxicity IC50” value in series [1] stood at 3.19 ± 0.26 µg/mL; in [2], 2.12 ± 0.43 µg/mL.
